Key:
[1] = Rate of dissolution of CBD according to Ph. Eur. 2.9.3 for oral tablets; format: physicochemical; conditions: 1 wt. % SDS in water, pH 7, 36-41° C.
Experimental: The rate of dissolution of CBD from the compressed tablets described in Example 2 was tested according to European Pharmacopeia (Ph. Eur. 2.9.3) for oral tablets. The rate of dissolution of pure CBD (20 mg) was determined using the same method.
The dissolution medium consisted of a solution of 1 wt. % SDS in water. The pH of the medium had been adjusted to 7 with diluted HCl. During the experiments, the temperature of the dissolution media was maintained between 36 and 41° C. under stirring. After dropping the tablet in the dissolution medium, samples were taken at various time intervals with a disposable syringe. The samples were filtered immediately over a syringe filter into a HPLC vial and analyzed by HPLC.

[2] = A. J. Poortman, H. Huizer, Forensic Science International (1999); cited from earlier work
schizophrenic patient = conditions: cited from earlier work

C=C(C)[C@@H]1CCC(C)=C[C@H]1c1c(O)cc(CCCCC)cc1O [CBD, cannabidiol]
% (w/w) of CBD dissolved ([1]; 1 min): 2.6 % (w/w) | % (w/w) of CBD dissolved ([1]; 4 min): 9.2 % (w/w) | % (w/w) of CBD dissolved ([1]; 8 min): 18.6 % (w/w) | % (w/w) of CBD dissolved ([1]; 15 min): 27.4 % (w/w) | % (w/w) of CBD dissolved ([1]; 30 min): 35.2 % (w/w) | % (w/w) of CBD dissolved ([1]; 45 min): 42.4 % (w/w) | % (w/w) of CBD dissolved ([1]; 60 min): 45.5 % (w/w) | stability of the drug [2]: unstable | symptom course (schizophrenic patient; patient with schizophrenia, dose doubled every 5 days, at 1280 mg/day): trend for symptom improvement | clinical course during CBD treatment (schizophrenic patient; schizophrenic patient, CBD dissolved in oil up to 1500 mg/day for 4 weeks): significant improvement
